Consider 13 compounds from patent US11524938B2, “Aromatic sulfonamide derivatives” (Bayer Pharma Aktiengesellschaft, priority 2016, dated 2022).

SMILES strings stand for the structures. A value given as a limit tells only on which side of the number the result lay.

In the test the target is T1, human P2X4 (Homo sapiens, UniProt Q99571).
T1 sequence (Q99571 1-388): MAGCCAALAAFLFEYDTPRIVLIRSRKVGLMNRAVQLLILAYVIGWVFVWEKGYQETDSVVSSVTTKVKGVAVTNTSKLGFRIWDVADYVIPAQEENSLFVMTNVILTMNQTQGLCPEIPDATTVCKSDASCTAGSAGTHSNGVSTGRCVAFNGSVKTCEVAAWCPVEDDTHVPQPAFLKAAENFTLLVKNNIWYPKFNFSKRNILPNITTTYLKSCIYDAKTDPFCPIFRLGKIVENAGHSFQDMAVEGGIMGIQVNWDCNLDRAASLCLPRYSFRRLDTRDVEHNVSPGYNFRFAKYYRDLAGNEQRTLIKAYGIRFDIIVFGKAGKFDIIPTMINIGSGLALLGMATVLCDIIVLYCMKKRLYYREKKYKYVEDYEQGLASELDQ
The test can be described thus: Human P2X4 HEK Cell FLIPR Assay. The test is classed as cell-based. Particulars: agonist Bz-ATP at EC80; for Emax: HEK293, HEK293 cells, percentage of maximal inhibition, read-out: Human P2X4 HEK Cells (FLIPR Assay) avg Efficacy [%]; for IC50: HEK293 cells, individual values listed where some fall outside detection range. The procedure, abridged: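 Calcium flux read by FLIPR for 120 sec after Bz-ATP challenge at EC80 (established each assay day), following 30 min room-temperature compound preincubation in dye-loaded stable human P2X4 HEK293 cells. Peak RFU over basal normalized to agonist control; IC50, maximal inhibition and Hill coefficient from triplicate means.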

In general, IC50 refers to the concentration that gives 50% inhibition. A high value points to lower potency.

Take `Cc1ccccc1CC(=O)Nc1ccc(-n2cc(Br)cn2)c(S(N)(=O)=O)c1` [Example 66, N-[4-(4-Bromo-1H-pyrazol-1-yl)-3-sulfamoylphenyl]-2-(2-methylphenyl)acetamide]: the Emax was found to be 90% and the IC50 was 86 nM.

Regarding `NS(=O)(=O)c1cc(NC(=O)Cc2cccnc2Cl)ccc1-n1cc(Br)cn1` [Example 67, N-[4-(4-Bromo-1H-pyrazol-1-yl)-3-sulfamoylphenyl]-2-(2-chloropyridin-3-yl)-acetamide], the Emax is 98% and the IC50 worked out at 1510 nM.

Consider `NS(=O)(=O)c1cc(NC(=O)Cc2ccc(F)cc2Cl)ccc1-n1cc(Br)cn1` [Example 68, N-[4-(4-Bromo-1H-pyrazol-1-yl)-3-sulfamoylphenyl]-2-(2-chloro-4-fluorophenyl)-acetamide], for which the Emax worked out at 75% and the IC50 stood at 128 nM.

Consider `NS(=O)(=O)c1cc(NC(=O)Cc2ccccc2OC(F)F)ccc1-n1cc(Br)cn1` [Example 69, N-[4-(4-Bromo-1H-pyrazol-1-yl)-3-sulfamoylphenyl]-2-[2-(difluoromethoxy)-phenyl]acetamide], for which the Emax worked out at 80% and the IC50 was determined as 210 nM.

Regarding `NS(=O)(=O)c1cc(NC(=O)Cc2ccccc2OC(F)(F)F)ccc1-n1cc(Br)cn1` [Example 70, N-[4-(4-Bromo-1H-pyrazol-1-yl)-3-sulfamoylphenyl]-2-[2-(trifluoromethoxy)-phenyl]acetamide], the Emax amounted to 85% and the IC50 came out at 118 nM.

As for `NS(=O)(=O)c1cc(NC(=O)Cc2cc(F)c(F)cc2Cl)ccc1-n1cc(Br)cn1` [Example 71, N-[4-(4-Bromo-1H-pyrazol-1-yl)-3-sulfamoylphenyl]-2-(2-chloro-4,5-difluorophenyl)-acetamide], the Emax was 80% and the IC50 came out at 132 nM.

Turning to `NS(=O)(=O)c1cc(NC(=O)Cc2ccncc2Cl)ccc1-n1cc(Br)cn1` [Example 72, N-[4-(4-Bromo-1H-pyrazol-1-yl)-3-sulfamoylphenyl]-2-(3-chloropyridin-4-yl)acetamide], the Emax is 96% and the IC50 was determined as 576 nM.

On to `NS(=O)(=O)c1cc(NC(=O)Cc2ccc(C(F)F)cc2)ccc1-n1cc(Br)cn1` [Example 73, N-[4-(4-Bromo-1H-pyrazol-1-yl)-3-sulfamoylphenyl]-2-[4-(difluoromethyl)-phenyl]acetamide], for which the Emax was determined as 52% and the IC50 was determined as 168 nM.

On to `NS(=O)(=O)c1cc(NC(=O)Cc2ccccc2Br)ccc1-n1cc(Cl)cn1` [Example 74, 2-(2-Bromophenyl)-N-[4-(4-chloro-1H-pyrazol-1-yl)-3-sulfamoylphenyl]acetamide], for which the Emax was found to be 84% and the IC50 is 49 nM.

For `COc1ccccc1CC(=O)Nc1ccc(-n2cc(Cl)cn2)c(S(N)(=O)=O)c1` [Example 75, N-[4-(4-Chloro-1H-pyrazol-1-yl)-3-sulfamoylphenyl]-2-(2-methoxyphenyl)acetamide], the Emax amounted to 87% and the IC50 was found to be 213 nM.

For `NS(=O)(=O)c1cc(NC(=O)Cc2ccc(Cl)cc2)ccc1-n1cc(Cl)cn1` [Example 76, 2-(4-Chlorophenyl)-N-[4-(4-chloro-1H-pyrazol-1-yl)-3-sulfamoylphenyl]acetamide], the Emax was 34% and the IC50 is > 25000 nM.

`NS(=O)(=O)c1cc(NC(=O)Cc2c(F)cccc2Cl)ccc1-n1cc(Cl)cn1` [Example 77, 2-(2-Chloro-6-fluorophenyl)-N-[4-(4-chloro-1H-pyrazol-1-yl)-3-sulfamoylphenyl]-acetamide]: the Emax amounted to 82% and the IC50 is 71 nM.

On to `NS(=O)(=O)c1cc(NC(=O)Cc2ccccc2[N+](=O)[O-])ccc1-n1cc(Cl)cn1` [Example 78, N-[4-(4-Chloro-1H-pyrazol-1-yl)-3-sulfamoylphenyl]-2-(2-nitrophenyl)acetamide], for which the Emax turned out to be 97% and the IC50 is 517 nM.
